According to US20100226980A1, “NOVEL TABLET BASED ON S-ADENOSYL-METHIONINE” (VETOQUINOL, priority 2009, published 2010):

Assay: Pharmacokinetic tests on dogs
Format: in vivo
Procedure: In order to confirm the results obtained in vitro, pharmacokinetic tests were carried out on dogs.

C[S+](CC[C@H](N)C(=O)O)C[C@H]1O[C@@H](n2cnc3c(N)ncnc32)[C@H](O)[C@@H]1O.Cc1ccc(S(=O)(=O)[O-])cc1 (stereo partly drawn) [SAMe, S-Adenosyl-Methionine Paratoluene Sulphonate]
absorption of SAMe (after administration of tablet): absorbed in the stomach as soon as it is administered | degradation of SAMe (after administration of tablet): not degraded | pharmacokinetic profiles of the different dogs (variability between animals): homogeneous and vary very little
